Data as given in US8889878B2, “Haloalky-substituted amides as insecticides and acaricides” (Bayer CropScience AG, priority 2009, dated 2014).

How the values were obtained:
Boophilus microplus [1] = assay: Boophilus microplus test (BOOPMI injection), Example 11; assay type: in vivo; settings: application rate 20 μg/animal, injected into abdomen, after 7 days; for pest or weed control at 0.02 mg: Rhipicephalus microplus, 168 h, read-out: efficacy in % (fertile eggs laid)
In short: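 Adult ticks injected in the abdomen with compound diluted in DMSO, then held in a climate-controlled room. Efficacy in % determined after 7 days from fertile eggs laid; 100% means no tick laid fertile eggs.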

Musca domestica adults = assay: Musca domestica test (MUSCDO), Example 14; assay type: in vivo; settings: application rate 100 ppm, treated sponge, after 2 days
Protocol: Musca domestica Test (MUSCDO) • Solvent: dimethyl sulphoxide To prepare an appropriate active ingredient formulation, 10 mg of active ingredient are mixed with 0.5 ml of dimethyl sulphoxide, and the concentrate is diluted with water to the desired concentration. Vessels containing a sponge which has been treated with the active ingredient formulation of the desired concentration are populated with Musca domestica adults. After 2 days, the kill rate in % is determined. 100% means that all flies were killed; 0% means that no flies were killed.

[2] = test system: armyworm (Spodoptera frugiperda); assay: Spodoptera frugiperda test (SPODFR spray treatment), Example 15; assay type: in vivo; settings: maize leaf discs sprayed, after 7 days; for pest or weed control at 500 g/ha: Spodoptera frugiperda, foliar, 168 h, application rate 500 g/ha, read-out: efficacy in %
In short: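 Maize leaf discs sprayed with active ingredient in acetone/DMF with alkylaryl polyglycol ether emulsifier, diluted in water, then populated with caterpillars after drying. Efficacy in % after 7 days: 100% all caterpillars killed, 0% none.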

[3] = logP by HPLC on reverse-phase column (EEC Directive 79/831 Annex V.A8); assay type: physicochemical; settings: for chromatographic logP: reverse-phase C18 HPLC column
Protocol: The logP values reported in the above Tables and Preparation Examples were determined according to EEC Directive 79/831 Annex V.A8 by HPLC (High Performance Liquid Chromatography) on a reverse-phase column (C18). Temperature 43° C.

Boophilus microplus [4] = assay: Boophilus microplus test (BOOPMI injection), Example 1; assay type: in vivo; settings: application rate 20 μg/animal, injected into abdomen, after 7 days
Protocol: Boophilus microplus Test (BOOPMI Injection) • Solvent: dimethyl sulphoxide To prepare an active ingredient formulation, 10 mg of active ingredient are mixed with 0.5 ml of solvent and the concentrate is diluted with water to the desired concentration. The active ingredient solution was injected into the abdomen (Boophilus microplus), and the animals were transferred to dishes and stored in a climate-controlled room. The efficacy was assessed by the number of fertile eggs laid. After 7 days, the efficacy in % is determined. 100% means that no tick laid fertile eggs.

[5] = test system: red spider mite (Tetranychus urticae); assay: Tetranychus test, OP-resistant (TETRUR spray treatment), Example 8; assay type: in vivo; settings: application rate 20 g/ha, common bean leaf discs sprayed, after 6 days
Protocol: Tetranychus Test, OP-resistant (TETRUR Spray Treatment)
(§1) • Solvent: 78.0 parts by weight of acetone • 1.5 parts by weight of dimethylformamide • Emulsifier: 0.5 part by weight of alkylaryl polyglycol ether
To prepare an active ingredient formulation, 1 part by weight of active ingredient is mixed with the stated amounts of solvent and emulsifier, and the concentrate is diluted with emulsifier-containing water to the desired concentration.
Leaf discs from the common bean (Phaseolus vulgaris) infested by all stages of the red spider mite (Tetranychus urticae) are sprayed with an active ingredient formulation of the desired concentration.
After 6 days, the efficacy in % is determined. 100% means that all spider mites were killed; 0% means that no spider mites were killed.

[6] = test system: mustard beetle (Phaedon cochleariae); assay: Phaedon test (PHAECO spray treatment), Example 16; assay type: in vivo; settings: Phaedon cochleariae, foliar, china cabbage leaf discs sprayed, after the desired time, read-out: efficacy in %; for pest or weed control at 500 g/ha: application rate 500 g/ha
Protocol: Phaedon Test (PHAECO Spray Treatment)
as §1
To prepare an appropriate active ingredient formulation, 1 part by weight of active ingredient is mixed with the stated amounts of solvent and emulsifier, and the concentrate is diluted with emulsifier-containing water to the desired concentration. […]
After the desired time, the efficacy in % is determined. 100% means that all beetle larvae were killed; 0% means that no beetle larvae were killed.

[7] = test system: green peach aphid (Myzus persicae); assay: Myzus test (MYZUPE spray treatment), Example 17; assay type: in vivo; settings: application rate 100 g/ha, china cabbage leaf discs sprayed, after 6 days
In short: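 Chinese cabbage leaf discs infested with all aphid stages were sprayed with compound formulated in acetone/dimethylformamide plus alkylaryl polyglycol ether emulsifier, diluted in emulsifier-containing water. Mortality read after 6 days as % efficacy (100% all killed, 0% none killed).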

[8] = pH 2.7, HPLC, C18 reverse phase, 43° C., acidic range pH 2.7, calibration with alkan-2-ones

chromatographic logP [3, 8]	SMILES	efficacy in % (fertile eggs laid) (Boophilus microplus [1])	kill rate in % (efficacy) (Musca domestica adults)	logP ([3]; HPLC-MS)	efficacy in % (fertile eggs laid) (Boophilus microplus [4])	pest or weed control at 500 g/ha [2]	pest or weed control at 500 g/ha [6]	other results
	Cn1c(C(=O)NC(c2cccc(C(F)(F)F)c2)C(F)(F)F)cc2cc(C(=O)NC3CC3)c(Cl)cc21 (racemic) [Ic-25]	100%	100%					
	CC(C)ONC(=O)c1ccc(/C=C/C(=O)NC(c2cccc(C(F)(F)F)c2)C(F)(F)F)cc1C(F)(F)F (stereo not drawn) [Ia-149]	100%	100%	HPLC-MS: logP = 3.48; mass				efficacy in % ([2]; application rate 100 g/ha): 100%
	N#Cc1ccc(/C=C/C(=O)NC(c2cccc(C(F)(F)F)c2)C(F)(F)F)cc1Cl (stereo not drawn) [Ia-44]	100%		HPLC-MS: logP = 3.91; mass	100%			
	O=C(/C=C/c1ccc(C(=O)NC2CCCC2C(F)(F)F)c(C(F)(F)F)c1)NC(c1cccc(C(F)(F)F)c1)C(F)(F)F (stereo not drawn) [Ia-77]	100%		HPLC-MS: logP = 3.93; mass	100%			efficacy in % [5]: 80%
3.22	N#Cc1cc(/C=C/C(=O)NC(c2ccc(Cl)c(Cl)c2)C(F)(F)F)ccc1-n1cncn1 (stereo not drawn) [Ia-17]					100%	100%	
	C#CCNC(=O)c1ccc(/C=C/C(=O)NC(c2cccc(C(F)(F)F)c2)C(F)(F)F)cc1Cl (stereo not drawn) [Ia-151]	100%	80%	HPLC-MS: logP = 3.2; mass				
3.54	N#Cc1ccc(/C=C/C(=O)NC(c2cccc(C(F)(F)F)c2)C(F)(F)F)cc1 (stereo not drawn) [Ia-8, (2E)-3-(4-Cyanophenyl)-N-{2,2,2-trifluoro-1-[3-(trifluoromethyl)phenyl]ethyl}acrylamide]				100%	100%	100%	pest or weed control at 0.02 mg (Boophilus microplus [1]): 100%
3.63	N#Cc1ccc2oc(C(=O)NC(c3cccc(C(F)(F)F)c3)C(F)(F)F)cc2c1 (stereo not drawn) [Ic-1, 5-Cyano-N-{2,2,2-trifluoro-1-[3-(trifluoromethyl)phenyl]ethyl}-1-benzofuran-2-carboxamide]					100%	100%	
2.63	O=C(/C=C/c1ccc(C(=O)NC2C[S+]([O-])C2)c(Cl)c1)NC(c1cccc(C(F)(F)F)c1)C(F)(F)F (stereo not drawn) [Ia-167, 2-chloro-N-(1-oxidothietan-3-yl)-4-[(1E)-3-oxo-3-({2,2,2-trifluoro-1-[3-(trifluoromethyl)phenyl]ethyl}amino)prop-1-en-1-yl]benzamide]							pest or weed control at 100 g/ha ([6]; application rate 100 g/ha): 100%; efficacy in % [7]: 80%
	O=C(/C=C/c1ccc(C(=O)Nc2ccc(Cl)cn2)c(C(F)(F)F)c1)NC(c1cccc(C(F)(F)F)c1)C(F)(F)F (stereo not drawn) [Ia-122]	100%	90%	HPLC-MS: logP = 4.3; mass				
	N#Cc1ccc(/C=C/C(=O)NC(c2cccc(C(F)(F)F)c2)C(F)(F)F)cc1C(F)(F)F (stereo not drawn) [Ia-46, (2E)-3-[4-cyano-3-(trifluoromethyl)phenyl]-N-{2,2,2-trifluoro-1-[3-(trifluoromethyl)phenyl]ethyl}acrylamide]				100%	100%	100%	pest or weed control at 0.02 mg (Boophilus microplus [1]): 100%; chromatographic logP ([3]; HPLC-MS): 4.06
	O=C(/C=C/c1ccc(C(=O)NCC(F)(F)F)c(Cl)c1)NC(c1cccc(C(F)(F)F)c1)C(F)(F)F (stereo not drawn) [Ia-19]	100%	100%	HPLC-MS: logP = 3.56; mass				
4.53	O=C(/C=C/c1ccc(-c2noc(C3CC3)n2)c(C(F)(F)F)c1)NC(c1cccc(C(F)(F)F)c1)C(F)(F)F (stereo not drawn) [Ia-123, (2E)-3-[4-(5-Cyclopropyl-1,2,4-oxadiazol-3-yl)-3-(trifluoromethyl)phenyl]-N-{2,2,2-trifluoro-1-[3-(trifluoromethyl)phenyl]ethyl}acrylamide]					100%	100%	pest or weed control at 0.02 mg (Boophilus microplus [1]): 100%
